The record followed here is patent publication US10829473B2, “Modulators of the cystic fibrosis transmembrane conductance regulator protein and methods of use” (AbbVie Overseas S.Á.R.L., priority 2017, dated 2020).

The test deals with T1, F508delCFTR (Homo sapiens, UniProt P13569, DEL508-508).
T1 construct: expressed in transfected cells; host or cells: CFBE41o- human lung derived epithelial cells (CFBE41o-F508delCFTR-HRP), doxycycline-inducible
Briefly: Cell Surface Expression-Horse Radish Peroxidase (CSE-HRP) Assay.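 For EC50 (with co-corrector): co-corrector chromenyl benzoic acid corrector at 2 or 3 µM.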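 For Maximum % activity (without co-corrector): % of on-plate positive control chromenyl benzoic acid corrector at 2 or 3 µM.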 In kind it is cell-based. Particulars: for Maximum % activity (with co-corrector) / Emax: maximum at any tested concentration; for Emax: read-out: Maximum % activity (without co-corrector). In short, it runs like this: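 Corrector compounds were given as 8-point 3-fold series from 20 or 30 μM, with or without a 2 μM co-corrector, for 18-24 h at 33 °C. Surface HRP was read by luminol luminescence as % of positive control; variable-Hill-slope sigmoidal fitting gave EC50 from triplicate plates.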

Where [1] appears, read: test compound alone, without co-corrector, read-out: EC50 (without co-corrector).
Setting [2] is: with co-corrector, read-out: EC50 (with co-corrector).
[3] abbreviates: test compound with co-corrector.
Where [4] appears, read: test compound with co-corrector, read-out: EC50 (with co-corrector).
The mark [5] stands for this setting: test compound without co-corrector.
[6] abbreviates: test compound without co-corrector, read-out: EC50 (without co-corrector).

Broadly, the pEC50 is −log10 of the EC50, conventionally taken in molar units.

pEC50: −log10 of the molar value. Like-named read-outs stand apart in the source and are kept apart here. Marks after values point to notes of the source that are not given here. A value given as a limit tells only on which side of the number the result lay.

T1 sequence (P13569 with tags, fused parts or gaps DEL508-508): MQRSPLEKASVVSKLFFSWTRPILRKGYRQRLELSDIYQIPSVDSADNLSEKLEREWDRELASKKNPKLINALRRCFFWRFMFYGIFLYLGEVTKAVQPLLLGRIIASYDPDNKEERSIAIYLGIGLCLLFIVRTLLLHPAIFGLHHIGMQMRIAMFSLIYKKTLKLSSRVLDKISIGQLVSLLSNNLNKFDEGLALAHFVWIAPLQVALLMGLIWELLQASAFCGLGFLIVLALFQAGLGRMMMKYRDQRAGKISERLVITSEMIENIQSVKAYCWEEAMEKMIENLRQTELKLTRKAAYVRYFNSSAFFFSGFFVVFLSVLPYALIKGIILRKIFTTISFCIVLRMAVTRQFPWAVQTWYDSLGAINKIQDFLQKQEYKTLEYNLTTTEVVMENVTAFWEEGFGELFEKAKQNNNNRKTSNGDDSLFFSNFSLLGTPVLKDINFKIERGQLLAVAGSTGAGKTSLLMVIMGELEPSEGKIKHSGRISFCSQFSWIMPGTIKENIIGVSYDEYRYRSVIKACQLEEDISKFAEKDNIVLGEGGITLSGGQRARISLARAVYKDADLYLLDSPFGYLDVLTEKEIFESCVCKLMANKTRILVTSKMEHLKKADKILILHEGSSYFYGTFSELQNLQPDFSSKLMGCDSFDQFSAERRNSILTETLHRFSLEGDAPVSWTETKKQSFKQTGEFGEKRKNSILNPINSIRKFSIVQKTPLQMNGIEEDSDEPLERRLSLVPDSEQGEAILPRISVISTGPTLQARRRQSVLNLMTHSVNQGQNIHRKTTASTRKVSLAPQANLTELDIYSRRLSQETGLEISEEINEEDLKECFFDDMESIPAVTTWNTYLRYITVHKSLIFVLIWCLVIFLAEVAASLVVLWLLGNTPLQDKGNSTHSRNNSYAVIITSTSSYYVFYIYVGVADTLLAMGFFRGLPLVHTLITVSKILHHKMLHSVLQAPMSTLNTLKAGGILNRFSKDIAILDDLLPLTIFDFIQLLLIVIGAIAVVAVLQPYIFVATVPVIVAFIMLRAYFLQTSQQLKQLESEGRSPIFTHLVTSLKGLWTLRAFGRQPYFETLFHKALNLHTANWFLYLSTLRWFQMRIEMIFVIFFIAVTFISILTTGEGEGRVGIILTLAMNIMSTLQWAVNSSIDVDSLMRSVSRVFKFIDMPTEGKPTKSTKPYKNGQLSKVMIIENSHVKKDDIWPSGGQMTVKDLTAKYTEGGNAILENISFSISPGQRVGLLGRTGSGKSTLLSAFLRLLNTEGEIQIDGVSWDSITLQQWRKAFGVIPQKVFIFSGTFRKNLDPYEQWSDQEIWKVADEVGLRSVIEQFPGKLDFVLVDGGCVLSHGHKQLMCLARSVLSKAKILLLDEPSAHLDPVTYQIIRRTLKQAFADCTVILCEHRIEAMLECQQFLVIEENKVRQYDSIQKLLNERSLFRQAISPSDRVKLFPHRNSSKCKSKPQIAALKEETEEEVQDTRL

With `COC(=O)c1ccc(S(=O)(=O)NC(=O)C2(c3ccc(Cl)cc3Cl)CC2)o1` [Example III-62, methyl 5-{[1-(2,4-dichlorophenyl)cyclopropane-1-carbonyl]ulfamoyl}furan-2-carboxylate], the pEC50 runs as follows: under setting [1], less than 5.00; under setting [2], less than 5.00. In addition, the “Maximum % activity (with co-corrector)” value (with co-corrector) is on record as “+ (<150)”. The Emax (without co-corrector) is less than 50%.

As for `Cc1ccc(C)c(C2(C(=O)NS(=O)(=O)c3cccc4nc(N)ccc34)CC2)c1` [Example I-81, N-(2-aminoquinoline-5-sulfonyl)-1-(2,5-dimethylphenyl)cyclopropane-1-carboxamide], the pEC50 is more than 5.52 under setting [1] and more than 5.52 under setting [2]. Further, the “Maximum % activity (with co-corrector)” value (with co-corrector) is recorded as “+++ (≥350)”. Further, for the setting “without co-corrector”, the Emax is more than 150%.

For `CCc1cnc(OCC(C)C)c(C2(C(=O)NS(=O)(=O)c3cccc4nc(C)ccc34)CC2)c1` [Example GI-46, 1-[5-ethyl-2-(2-methylpropoxy)pyridin-3-yl]-N-(2-methylquinoline-5-sulfonyl)cyclopropane-1-carboxamide], under setting [3], the “Maximum % activity (with co-corrector)” value was “+++ (≥350)”. The pEC50 is more than 5.52 under setting [4] and more than 5.52 under setting [6]. Further, the Emax under setting [5] was more than 150%.

In the case of `COc1cc(OC(C)C)c(C2(C(=O)NS(=O)(=O)c3cccc4c3CCCN4)CC2)cn1` [GII-24, 1-{6-methoxy-4-[(propan-2-yl)oxy]pyridin-3-yl}-N-(1,2,3,4-tetrahydroquinoline-5-sulfonyl)cyclopropane-1-carboxamide], the “Maximum % activity (with co-corrector)” value under setting [3] is “++ (≥150 and <350)”. The pEC50 under setting [4] is 5.00 to 5.52. Further, under setting [5], the “EC50 (without co-corrector)” value is reported as “++^a” and the Emax was 50 to 150%.

For the molecule `COc1ccc(C(C)C)cc1C1(C(=O)NS(=O)(=O)c2cccc3c2CCCN3)CCC1` [II-20], the pEC50 is, setting by setting: under setting [1], 5.00 to 5.52; under setting [2], more than 5.52. Besides, where the note is “with co-corrector”, the “Maximum % activity (with co-corrector)” value is on record as “+++ (≥350)”. Moreover, under “without co-corrector”, the Emax is more than 150%.

Turning to `COCCOc1cnc(OC)cc1C1(C(=O)NS(=O)(=O)c2cccc3[nH]ccc23)CC1` [GII-45, N-(1H-indole-4-sulfonyl)-1-[2-methoxy-5-(2-methoxyethoxy)pyridin-4-yl]cyclopropane-1-carboxamide], the “Maximum % activity (with co-corrector)” value under setting [3] was “+++ (≥350)”. The pEC50 is 5.00 to 5.52 under setting [4] and 5.00 to 5.52 under setting [6]. For the same molecule, the Emax under setting [5] was more than 150%.

As to `CC(C)COc1ncc(C2CC2)cc1C1(C(=O)NS(=O)(=O)c2cccc3ncccc23)CC1` [Example GI-48, 1-[5-cyclopropyl-2-(2-methylpropoxy)pyridin-3-yl]-N-(quinoline-5-sulfonyl)cyclopropane-1-carboxamide], the “Maximum % activity (with co-corrector)” value under setting [3] is “+++ (≥350)”. For the same molecule, the pEC50 runs as follows: under setting [4], more than 5.52; under setting [6], more than 5.52. Moreover, under setting [5], the Emax was more than 150%.

Consider `COCCOc1cnc(OC)cc1C1(C(=O)NS(=O)(=O)c2cccc3ncccc23)CC1` [GIII-11], for which, under setting [3], the “EC50 (with co-corrector)” value is “++^a”; the “Maximum % activity (with co-corrector)” value is “++ (≥150 and <350)”. Also, under setting [5], the “EC50 (without co-corrector)” value is on record as “++^a” and the Emax is 50 to 150%.

In the case of `COc1nc(N)ccc1C1(C(=O)NS(=O)(=O)c2cccc3ncccc23)CC1` [GIII-30], under setting [3], the “EC50 (with co-corrector)” value is “++^a” and the “Maximum % activity (with co-corrector)” value is given as “+ (<150)”. Moreover, the Emax under setting [5] was less than 50%. Besides, the pEC50 under setting [6] was less than 5.00.

Turning to `COc1ncc(C2CCC2)cc1C1(C(=O)NS(=O)(=O)c2cccc3c2CCCN3)CC1` [Example I-6, 1-(5-cyclobutyl-2-methoxypyridin-3-yl)-N-(1,2,3,4-tetrahydroquinoline-5-sulfonyl)cyclopropane-1-carboxamide], the pEC50 is more than 5.52 under setting [1] and more than 5.52 under setting [2]. Besides, where the note is “with co-corrector”, the “Maximum % activity (with co-corrector)” value was “+++ (≥350)”. The Emax (without co-corrector) is more than 150%.

As for `COc1ccc(C23CC(C2)C3)cc1C1(C(=O)NS(=O)(=O)c2cccc3ncccc23)CC1` [Example I-38, 1-[5-(bicyclo[1.1.1]pentan-1-yl)-2-methoxyphenyl]-N-(quinoline-5-sulfonyl)cyclopropane-1-carboxamide], the pEC50 is, setting by setting: under setting [1], more than 5.52; under setting [2], more than 5.52. Also, the “Maximum % activity (with co-corrector)” value (with co-corrector) is recorded as “+++ (≥350)”. The Emax (without co-corrector) is more than 150%.

For `CCOc1ccc(C(C)(C)COC)cc1C1(C(=O)NS(=O)(=O)c2cccc3ncccc23)CC1` [Example I-101, 1-[2-ethoxy-5-(1-methoxy-2-methylpropan-2-yl)phenyl]-N-(quinoline-5-sulfonyl)cyclopropane-1-carboxamide], the pEC50 is more than 5.52 under setting [1] and more than 5.52 under setting [2]. The “Maximum % activity (with co-corrector)” value (with co-corrector) is listed as “+++ (≥350)”. Where the note is “without co-corrector”, the Emax was more than 150%.

For `CCc1cnc(N2CCC(OC(C)C)CC2)c(C2(C(=O)NS(=O)(=O)c3cccc4nc(C)ccc34)CC2)c1` [GII-55, 1-(5-ethyl-2-{4-[(propan-2-yl)oxy]piperidin-1-yl}pyridin-3-yl)-N-(2-methylquinoline-5-sulfonyl)cyclopropane-1-carboxamide], the “Maximum % activity (with co-corrector)” value under setting [3] is listed as “+++ (≥350)”. Further, the negative logarithm of the EC50 (pEC50) under setting [4] was 5.00 to 5.52 and the pEC50 under setting [6] is 5.00 to 5.52. For the same molecule, the Emax under setting [5] was more than 150%.

As for `CC(C)Oc1ccc(S(=O)(=O)NC(=O)C2(c3ccc(Cl)cc3Cl)CC2)cc1` [Example III-20, 1-(2,4-dichlorophenyl)-N-{4-[(propan-2-yl)oxy]benzene-1-sulfonyl}cyclopropane-1-carboxamide], the pEC50 runs as follows: under setting [1], less than 5.00; under setting [2], less than 5.00. Moreover, the “Maximum % activity (with co-corrector)” value (with co-corrector) is “+ (<150)”. For the setting “without co-corrector”, the Emax is less than 50%.

For the molecule `COCCOc1ncc(C2CCC2)cc1C1(C(=O)NS(=O)(=O)c2cccc3ncccc23)CC1` [Example GI-111, 1-[5-cyclobutyl-2-(2-methoxyethoxy)pyridin-3-yl]-N-(quinoline-5-sulfonyl)cyclopropane-1-carboxamide], under setting [3], the “Maximum % activity (with co-corrector)” value is reported as “+++ (≥350)”. Also, the negative-log EC50 (pEC50) under setting [4] was more than 5.52 and the pEC50 under setting [6] was more than 5.52. Moreover, the Emax under setting [5] is more than 150%.

For `O=C(NS(=O)(=O)c1cccc2ncccc12)C1(c2cc(C3CCC3)cnc2N2CCOCC2)CC1` [GII-28, 1-[5-cyclobutyl-2-(morpholin-4-yl)pyridin-3-yl]-N-(quinoline-5-sulfonyl)cyclopropane-1-carboxamide], the “Maximum % activity (with co-corrector)” value under setting [3] is “++ (≥150 and <350)”. Under setting [4], the pEC50 was 5.00 to 5.52. For the same molecule, under setting [5], the “EC50 (without co-corrector)” value was “++^a” and the Emax was in the range of 50 to 150%.

Turning to `Cc1cnc(N(C)C)cc1C1(C(=O)NS(=O)(=O)c2cccc3ncccc23)CC1` [GII-11, 1-[2-(dimethylamino)-5-methylpyridin-4-yl]-N-(quinoline-5-sulfonyl)cyclopropane-1-carboxamide], the “Maximum % activity (with co-corrector)” value under setting [3] is on record as “+++ (≥350)”. Also, the pEC50 under setting [4] was 5.00 to 5.52. Moreover, under setting [5], the “EC50 (without co-corrector)” value is “++^a” and the Emax fell in the range of 50 to 150%.

`COc1ccc(S(=O)(=O)NC(=O)C2(c3ccc(Cl)cc3Cl)CC2)cc1` [Example III-24, 1-(2,4-dichlorophenyl)-N-(4-methoxybenzene-1-sulfonyl)cyclopropane-1-carboxamide]: the pEC50 under setting [1] was less than 5.00 and the pEC50 under setting [2] is less than 5.00. For the same molecule, the “Maximum % activity (with co-corrector)” value (with co-corrector) is “++ (≥150 and <350)”. In addition, under “without co-corrector”, the Emax is less than 50%.

In the case of `O=C(NS(=O)(=O)c1cccc2ncccc12)C1(c2cc(Cl)cnc2F)CC1` [GIII-34], the “Maximum % activity (with co-corrector)” value under setting [3] is given as “+ (<150)”. The pEC50 under setting [4] is less than 5.00 and the pEC50 under setting [6] is less than 5.00. For the same molecule, under setting [5], the Emax is less than 50%.

With `Cc1cnc(C2(C(=O)NS(=O)(=O)c3cccc4[nH]ccc34)CC2)c(C2CC2)c1` [GII-39, 1-(3-cyclopropyl-5-methylpyridin-2-yl)-N-(1H-indole-4-sulfonyl)cyclopropane-1-carboxamide], under setting [3], the “Maximum % activity (with co-corrector)” value was “++ (≥150 and <350)”. Also, the pEC50 runs as follows: under setting [4], 5.00 to 5.52; under setting [6], 5.00 to 5.52. For the same molecule, under setting [5], the Emax is 50 to 150%.

Take `COc1ncc(C2CCC2)c(C)c1C1(C(=O)NS(=O)(=O)c2cccc3c2ccn3C)CC1` [II-41]: the pEC50 runs as follows: under setting [1], 5.00 to 5.52; under setting [2], more than 5.52. Also, the “Maximum % activity (with co-corrector)” value (with co-corrector) is “+++ (≥350)”. In addition, where the note is “without co-corrector”, the Emax lay in the range of 50 to 150%.

As for `CCCS(=O)(=O)NC(=O)C1(c2ccc(Cl)cc2Cl)CC1` [Example III-107, 1-(2,4-dichlorophenyl)-N-(propane-1-sulfonyl)cyclopropane-1-carboxamide], the pEC50 reads like this: under setting [1], less than 5.00; under setting [2], less than 5.00. In addition, the “Maximum % activity (with co-corrector)” value (with co-corrector) was “+ (<150)”. The Emax (without co-corrector) was less than 50%.

With `COc1cnc(OC(C)C)c(C2(C(=O)NS(=O)(=O)c3cccc4[nH]ccc34)CC2)c1` [Example GI-75, N-(1H-indole-4-sulfonyl)-1-{5-methoxy-2-[(propan-2-yl)oxy]pyridin-3-yl}cyclopropane-1-carboxamide], the “Maximum % activity (with co-corrector)” value under setting [3] is given as “+++ (≥350)”. The pEC50 was more than 5.52 under setting [4] and 5.00 to 5.52 under setting [6]. The Emax under setting [5] was more than 150%.

Consider `CCc1ccc(OC)c(C2(C(=O)NS(=O)(=O)c3cccc4[nH]ncc34)CC2)c1` [II-72], for which the pEC50 was more than 5.52 under setting [1] and more than 5.52 under setting [2]. Moreover, the “Maximum % activity (with co-corrector)” value (with co-corrector) is listed as “+++ (≥350)”. Further, the Emax (without co-corrector) is more than 150%.
